{"source": "paper PMC10199020", "about": "(Nature Communications, 2023)", "key": {"NL-IL23R": {"molecular_target": "T1, NL-IL23R (Homo sapiens, UniProt Q5VWK5)", "T1 construct": "expressed in transfected cells; host or cells: HEK293T, transient transfection", "T1 sequence (Q5VWK5 24-629)": "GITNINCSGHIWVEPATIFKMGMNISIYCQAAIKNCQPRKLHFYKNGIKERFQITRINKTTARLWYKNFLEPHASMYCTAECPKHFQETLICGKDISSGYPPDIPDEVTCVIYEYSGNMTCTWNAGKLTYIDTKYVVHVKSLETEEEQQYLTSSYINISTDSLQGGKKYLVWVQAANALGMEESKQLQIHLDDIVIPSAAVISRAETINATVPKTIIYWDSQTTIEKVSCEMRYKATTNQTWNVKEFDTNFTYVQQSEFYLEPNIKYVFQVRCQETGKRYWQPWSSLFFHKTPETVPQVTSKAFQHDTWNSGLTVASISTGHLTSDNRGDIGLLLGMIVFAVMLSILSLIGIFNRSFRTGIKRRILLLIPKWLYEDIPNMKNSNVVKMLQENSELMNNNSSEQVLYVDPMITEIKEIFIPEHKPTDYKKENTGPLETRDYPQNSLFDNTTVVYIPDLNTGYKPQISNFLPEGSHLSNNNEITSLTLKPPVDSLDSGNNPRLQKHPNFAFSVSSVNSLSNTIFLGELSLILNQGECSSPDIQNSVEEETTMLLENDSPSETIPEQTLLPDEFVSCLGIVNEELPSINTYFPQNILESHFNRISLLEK", "assay": "P630-TMR NanoBRET binding assay, NL-IL23R alone", "settings": "for BRET ratio, Specific (Mean) / BRET ratio, Non-specific (Mean): Fig. 2c; for BRET ratio, Non-specific (Mean): with 10 μM P630; for BRET ratio with non-specific binding subtracted (Mean): Figure 2 sheet Panel f; for BRET ratio with non-specific binding subtracted (Mean) / % maximum BRET ratio / % of P630-TMR specific Bmax (Mean): NL-IL23R; for % maximum BRET ratio / % of P630-TMR specific Bmax (Mean): Figure 2 sheet Panel g, Fig. 3d", "excerpt": "A standard curve was used to predict the expression level of NanoLuc labelled receptor in each experiment (Supplementary Fig. 1).\n(§1) Fig. 2 Creation and characterisation of a fluorescent cyclic peptide probe for IL23R. […] Data are normally mean ± SEM from five independent experiments. Details on absolute number of data points included for each concentration are provided in the associated Source Data file. In each individual saturation experiment triplicate determinations were normally made for total binding and duplicate measurements were made for non-specific binding.\n(§2) Media was removed from white 96-well microplates containing transfected cells and replaced with fluoroprobe in the presence or absence of antagonist in 50 μL Hanks Balanced Salt Solution (HBSS) with 1 mg/mL BSA (Merck). After a 1-hour incubation at 37 °C without CO2, 5 μL of HBSS containing 77 μM furimizine was added to each well (final concentration 7 μM), the plate incubated for 5-minutes and the BRET signal measured using a PheraStar FS plate reader (BMG Labtech; data acquisition software version 5.41; MARS analysis software version 3.32) with a 450 ± 30 nm and >550 nm long pass filters.\nLigand binding data were fitted with the equation:2 BRETratio=Bmax[A]/([A]+KD)+(BA+C). Where ‘Bmax’ is the maximum specific binding BRET signal, ‘[A]’ is fluorescent probe concentration, ‘B’ is the non-specific binding component’s slope and ‘C’ is the Y intercept.\n(§3) Specific binding data was generated by subtracting the BRET values gained in the presence of an excess of unlabelled probe from the BRET ratios gained in the absence of unlabelled probe. Specific binding data were fit using the equation:3 Y=Bmax[B]/(B+KD) where ‘Bmax’ is the maximum specific binding signal of the curve and ‘[B]’ is the concentration of fluorescent probe."}, "NL-IL12Rβ1": {"molecular_target": "T2, NL-IL12Rβ1 (Homo sapiens, UniProt P42701)", "T2 construct": "expressed in transfected cells; host or cells: HEK293T, transient transfection", "assay": "P630-TMR NanoBRET binding assay, NL-IL12Rβ1 alone", "settings": "for Specific binding BRET ratio (Mean): Fig. 2h, NL-IL12RB1", "excerpt": "as §1\nFinally, we utilised a NanoBiT BRET system in which a complemented luciferase with fragments bound to both receptor subunits (Fig. 3) can be used as a BRET donor to measure interactions with binary receptor complexes.\nas §2, §3"}, "[1]": {"settings": "NL-IL23R alone, P630-TMR 1.37174 nM"}, "[2]": {"settings": "NL-IL23R alone, P630-TMR 4.11523 nM"}, "[3]": {"settings": "NL-IL23R alone, P630-TMR 12.3457 nM"}, "[4]": {"settings": "NL-IL23R alone, P630-TMR 37.037 nM"}, "[5]": {"settings": "NL-IL23R alone, P630-TMR 111.111 nM"}, "[6]": {"settings": "NL-IL23R alone, P630-TMR 1000 nM"}, "[7]": {"settings": "NL-IL23R alone, P630-TMR 3000 nM"}}, "note": "Entries after “also recorded” stand apart in the source; their conditions may differ. Bridge positions count the residues as written; N and C are the ends. Square brackets hold non-standard residues; d marks the D form. Peptide text beside a SMILES is read from it. * marks the point of attachment. 5TAMRA = CN(C)c1ccc2c(c1)Oc1cc(N(C)C)ccc1C21OC(=O)c2cc(C(=O)*)ccc21; 2Nal = N[C@@H](Cc1ccc2ccccc2c1)C(=O)O; Pen = CC(C)(S)[C@H](N)C(=O)O; Aib = CC(C)(N)C(=O)O", "data": [{"smiles": "COc1ccc(C[C@H](NC(=O)[C@H]2NC(=O)[C@H](CCC(N)=O)NC(=O)[C@H](Cc3c[nH]c4ccccc34)NC(=O)[C@H]([C@@H](C)O)NC(=O)[C@H](CC(N)=O)NC(=O)[C@@H](NC(C)=O)C(C)(C)SSC2(C)C)C(=O)N[C@@H](Cc2ccc3ccccc3c2)C(=O)NC(C)(C)C(=O)N[C@@H](CCC(=O)O)C(=O)N[C@@H](CC(N)=O)C(=O)N[C@@H](CC(N)=O)C(=O)N[C@@H](CCCCNC(=O)c2ccc3c(c2)C(=O)OC32c3ccc(N(C)C)cc3Oc3cc(N(C)C)ccc32)C(N)=O)cc1", "note": "[P630-TMR] (Ac-[Pen]NTWQ[Pen]Y(Me)[2Nal][Aib]ENNK(5TAMRA)-NH2; disulfide 1-6)", "values": [{"measurement": "BRET ratio, Specific (Mean)", "setting": "NL-IL23R; [1]", "value": 0.3055}, {"measurement": "BRET ratio, Specific (Mean)", "setting": "NL-IL23R; [2]", "value": 0.425}, {"measurement": "BRET ratio, Specific (Mean)", "setting": "NL-IL23R; [3]", "value": 0.7682}, {"measurement": "BRET ratio, Specific (Mean)", "setting": "NL-IL23R; [4]", "value": 1.473}, {"measurement": "BRET ratio, Specific (Mean)", "setting": "NL-IL23R; [5]", "value": 2.644}, {"measurement": "BRET ratio, Specific (Mean)", "setting": "NL-IL23R; [6]", "value": 4.095}, {"measurement": "BRET ratio, Specific (Mean)", "setting": "NL-IL23R; [7]", "value": 5.137}, {"measurement": "BRET ratio, Non-specific (Mean)", "setting": "NL-IL23R; NL-IL23R alone, P630-TMR 0.457247 nM", "value": 0.2458}, {"measurement": "BRET ratio, Non-specific (Mean)", "setting": "NL-IL23R; [1]", "value": 0.2417}, {"measurement": "BRET ratio, Non-specific (Mean)", "setting": "NL-IL23R; [2]", "value": 0.2509}, {"measurement": "BRET ratio, Non-specific (Mean)", "setting": "NL-IL23R; [3]", "value": 0.245}, {"measurement": "BRET ratio, Non-specific (Mean)", "setting": "NL-IL23R; [4]", "value": 0.2505}, {"measurement": "BRET ratio, Non-specific (Mean)", "setting": "NL-IL23R; [5]", "value": 0.2646}, {"measurement": "BRET ratio, Non-specific (Mean)", "setting": "NL-IL23R; [6]", "value": 0.4272}, {"measurement": "BRET ratio, Non-specific (Mean)", "setting": "NL-IL23R; [7]", "value": 0.8664}, {"measurement": "BRET ratio, Non-specific (Mean)", "setting": "NL-IL23R; NL-IL23R alone, P630-TMR […]", "value": 0.2988}, {"measurement": "BRET ratio with non-specific binding subtracted (Mean)", "setting": "NL-IL23R; P630-TMR 0.457247 nM", "value": 0.01938}, {"measurement": "BRET ratio with non-specific binding subtracted (Mean)", "setting": "NL-IL23R; P630-TMR 1.37174 nM", "value": 0.8164}, {"measurement": "BRET ratio with non-specific binding subtracted (Mean)", "setting": "NL-IL23R; P630-TMR 4.11523 nM", "value": 2.963}, {"measurement": "BRET ratio with non-specific binding subtracted (Mean)", "setting": "NL-IL23R; P630-TMR 12.3457 nM", "value": 2.778}, {"measurement": "BRET ratio with non-specific binding subtracted (Mean)", "setting": "NL-IL23R; P630-TMR 37.037 nM", "value": 2.936}, {"measurement": "BRET ratio with non-specific binding subtracted (Mean)", "setting": "NL-IL23R; P630-TMR 111.111 nM", "value": 9.572}, {"measurement": "BRET ratio with non-specific binding subtracted (Mean)", "setting": "NL-IL23R; P630-TMR 1000 nM", "value": 15.1461}, {"measurement": "BRET ratio with non-specific binding subtracted (Mean)", "setting": "NL-IL23R; P630-TMR 3000 nM", "value": 19.8619}, {"measurement": "% maximum BRET ratio / % of P630-TMR specific Bmax (Mean)", "setting": "NL-IL23R; P630-TMR 0.457247 nM", "value": 0.5534, "unit": "%"}, {"measurement": "% maximum BRET ratio / % of P630-TMR specific Bmax (Mean)", "setting": "NL-IL23R; P630-TMR 1.37174 nM", "value": 1.759, "unit": "%"}, {"measurement": "% maximum BRET ratio / % of P630-TMR specific Bmax (Mean)", "setting": "NL-IL23R; P630-TMR 4.11523 nM", "value": 4.853, "unit": "%"}, {"measurement": "% maximum BRET ratio / % of P630-TMR specific Bmax (Mean)", "setting": "NL-IL23R; P630-TMR 12.3457 nM", "value": 14.5245, "unit": "%"}, {"measurement": "% maximum BRET ratio / % of P630-TMR specific Bmax (Mean)", "setting": "NL-IL23R; P630-TMR 37.037 nM", "value": 33.5672, "unit": "%"}, {"measurement": "% maximum BRET ratio / % of P630-TMR specific Bmax (Mean)", "setting": "NL-IL23R; P630-TMR 111.111 nM", "value": 64.3078, "unit": "%"}, {"measurement": "% maximum BRET ratio / % of P630-TMR specific Bmax (Mean)", "setting": "NL-IL23R; P630-TMR 1000 nM", "value": 100.336, "unit": "%"}, {"measurement": "% maximum BRET ratio / % of P630-TMR specific Bmax (Mean)", "setting": "NL-IL23R; P630-TMR 3000 nM", "value": 99.0015, "unit": "%"}, {"measurement": "Kd", "setting": "NL-IL23R; NL-IL23R alone, mean ± SEM", "value": "101 ± 4", "unit": "nM"}, {"measurement": "Bmax, fold higher than NL-IL23R with IL12Rβ1", "setting": "NL-IL23R; NL-IL23R in isolation", "value": 4.04, "unit": "fold"}, {"measurement": "Specific binding BRET ratio (Mean)", "setting": "NL-IL12Rβ1; P630-TMR 1.37174 nM", "value": -0.001356}, {"measurement": "Specific binding BRET ratio (Mean)", "setting": "NL-IL12Rβ1; P630-TMR 4.11523 nM", "value": 0.00137}, {"measurement": "Specific binding BRET ratio (Mean)", "setting": "NL-IL12Rβ1; P630-TMR 12.3457 nM", "value": 0.0001891}, {"measurement": "Specific binding BRET ratio (Mean)", "setting": "NL-IL12Rβ1; P630-TMR 37.037 nM", "value": 0.00136}, {"measurement": "Specific binding BRET ratio (Mean)", "setting": "NL-IL12Rβ1; P630-TMR 111.111 nM", "value": 0.002083}, {"measurement": "Specific binding BRET ratio (Mean)", "setting": "NL-IL12Rβ1; P630-TMR 1000 nM", "value": 0.003104}, {"measurement": "Specific binding BRET ratio (Mean)", "setting": "NL-IL12Rβ1; P630-TMR 3000 nM", "value": 0.002137}, {"measurement": "Binding to cells expressing NL-IL12Rβ1 in isolation", "setting": "NL-IL12Rβ1; absence of IL23R", "value": "no specific binding; also recorded: Did not bind"}]}]}
